Values joined by “and” are separate entries in the source; they are usually repeats but may differ in a detail not shown here. Identical values can stand only once.
Legend:
[1] = test system: anti-HAV-positive sera; experiment: EIA for anti-HAV: synthetic peptides adsorbed to wells, reacted with anti-HAV-positive acute sera; format: binding, human; conditions: for Reactivity with acute sera (reactive/tested): experiment 1: sera 1:100, anti-human IgG-HRP, cutoff P/N 3.0; for Reactivity with acute sera (percent of sera reactive): experiment 1: sera 1:100, cutoff P/N 3.0; for P/N for acute sera (mean) / P/N for acute sera (range, in parentheses): OD493 positive/negative ratio of reactive sera
Source text: (§1) All anti-HAV-positive and anti-HAV-negative sera were randomly selected from a collection reposited at the Centers for Disease Control and Prevention, Atlanta, Ga. Serum specimens were collected from anti-HAV-positive patients with acute liver disease. Anti-HAV-negative serum specimens were collected from normal blood donors. All sera were initially tested by commercially available kit for the presence of anti-HAV activity (HAVAB and HAVAB-M, Abbott Laboratories, Abbott Park, Ill.)
(§2) Synthetic peptides (110 ml) at a concentration of 10 mg/ml in 0.1 M phosphate-buffered saline (PBS), pH 7.5, were adsorbed to microtiter wells (Immulon II, Dynatech Laboratories, Inc.) at room temperature for 12 h. Sera were diluted in PBS containing 0.1% Tween 20 and 10% normal goat serum (PBS-T) and 100 ml were added to each well, incubated for 60 min at 37E C, and washed with PBS containing Tween-20. […] Two different cutoffs were established for experiments 1 and 2. In experiment 1, the cutoff, expressed as a P/N ratio and equal to 3.0, was statistically established as the mean of negative controls plus at least 3.5 standard deviations (SD) above the mean, where P represents the optical density value at 493 nm (OD493) of anti-HAV-positive specimens and N represents the optical density value of negative controls. In experiment 2, a different cutoff was used to ensure statistical reliability and accurate interpretation of positive results. In this case, in addition to anti-HAV-negative sera, two irrelevant synthetic peptides were used as supplemental negative controls to determine the degree of nonspecific binding of anti-HAV sera to synthetic peptides. One cutoff, expressed as a P/N ratio and equal to 3.0, corresponded to the mean of negative serum controls plus at least 3.5 SD above the mean. A second cutoff was also expressed as a P/N ratio, where P represents the optical density value at 493 nm (OD493) for HAV peptides immunoreacting with anti-HAV-positive specimens and N represents the optical density value obtained with the irrelevant peptides. The second cutoff was equal 2.0 and corresponded to the mean of OD values obtained with the irrelevant peptides plus at least 3.5 SD above the mean. Synthetic peptides were considered immunoreactive with anti-HAV serum specimens only when both cutoffs were satisfied.

[2] = test system: anti-HAV-negative sera; experiment: EIA for anti-HAV: synthetic peptides reacted with anti-HAV-negative sera; format: binding, human; conditions: experiment 1: sera 1:100, cutoff P/N 3.0
Source text: as §1, §2

| Sequence | Reactivity with acute sera (reactive/tested) [1] | Reactivity with acute sera (percent of sera reactive) [1] [%] | P/N for acute sera (individual values) ([1]; experiment 1, single sera listed with semicolon) | Reactivity with negative sera (reactive/tested) [2] | immunoreactivity with anti-HAV-positive sera (in words) [1] | P/N for acute sera (mean) ([1]; experiment 1) | percent of (IgM) anti-HAV-positive sera immunoreactive with peptide [1] | P/N for acute sera (range, in parentheses) ([1]; experiment 1) | mean P/N ratio with anti-HAV-positive sera [1] |
| --- | --- | --- | --- | --- | --- | --- | --- | --- | --- |
| GITLKQATTAPCAVMDITGV [YK-1252] | 2/41 | 4.9 | 3.67 and 17.95 | 0/46 | – | – | – | – | – |
| SDSVGQQIKVIPVDPYFFQM [YK-1243] | 1/41 | 2.4 | – | 0/46 | Very weakly reactive | 3.47 | – | – | – |
| VMTVEIRKQNMTEFMELWSQ [YK-1367] | 9/41 | 22.0 | – | 1/41 | – | 7.82 | 22.0% | (4.18-16.26) | – |
| QRLKYAQEELSNEVLPPPRK [YK-1317] | 55/66 | 83.3 | – | 1/66 | – | 19.35 | – | (3.47-125.8) | – |
| FDFQVFPTKYHSGRLLFCFV [YK-1249] | 18/46 | 39.1 | – | 0/48 | broadly and strongly immunoreactive | 5.03 | – | (3.07-7.03) | – |
| LYNEQFAVQGLLRYHTYARF [YK-1215] | 10/41 | 24.4 | – | 0/46 | not found immunoreactive | 5.29 | – | (3.41-8.83) | – |
| TKPVASDYWDGYSGQLVCII [YK-1352] | 8/48 | 16.7 | – | 0/51 | – | 4.45 | – | (3.38-5.81) | – |
| VAKLVTQEMFQNIDKKIESQ [YK-1393] | 24/41 | 58.5 | – | 1/27 | very broad and strong antigenic reactivity | 10.15 | 58.5% | (4.64-16.36) | 10.15 |
| NILKDNQQKIEKAIEEADEF [YK-1341] | 3/48 | 6.3 | – | 1/51 | – | 5.23 | – | (3.44-8.26) | – |
| TTVSTEQNVPDPQVGITTMK [YK-1265] | 9/41 | 22.0 | – | 0/46 | – | 6.7 | – | (3.23-9.57) | – |
| SAVAEFFQSFPSGEPSNSKLSGFFQ [YK-1832] | – | – | – | – | – | – | about 86.0% | – | – |
| KTMIRFGDVGLDLDFSAFDA [YK-1418] | 6/41 | 14.6 | – | 1/27 | – | 4.5 | – | (3.35-6.21) | – |
| EDPVLAKKVPETFPELKPGE [YK-1272] | 6/41 | 14.6 | – | 1/46 | – | 5.4 | – | (4.87-6.12) | – |
| PQLKPVSELTFLKRSFNLVE [YK-1431] | 4/41 | 9.8 | – | 1/27 | – | 14.13 | – | (3.17-27.53) | – |
| PYKELRLEVGKQRLKYAQEE [YK-1316] | 20/48 | 41.7 | – | 2/51 | – | 8.71 | – | (3.5-17.8) | – |
| QRLKYAQEELSNEVLPPPRKMKGLF [YK-1665] | – | – | – | – | greater immunoreactivity than Peptide No. YK-1317 | – | – | – | – |
